Source: patent US10493064B2, “IBS microbiota and uses thereof” (priority 2014, dated 2019)
≈ marks a conversion by molar mass, not a printed value. Read-outs that look alike come from different tables or passages of the source.

How the values were obtained:
Staphylococcus isolates = assay: Broth microdilution susceptibility (MIC) testing of Staphylococcus isolates cultured from skin swabs; assay type: cell-based; conditions: for resistance of S. aureus isolates: S. aureus isolates from skin swabs, OL or DB phases; for changes in MIC90 values: return to baseline by end of study; for MIC: read-out: maximum MIC concentration observed
[1] = tested on: Staphylococcus isolates cultured from stool; assay: Susceptibility (MIC) testing of stool culture isolates: Staphylococcus; assay type: cell-based; conditions: end of Treatment 2 (OL) and end of Treatment 3 (DBR); returned to baseline in follow-up
C. difficile = assay: Susceptibility testing of stool culture isolates: C. difficile; assay type: cell-based, Clostridium difficile
Bacteroides = assay: Susceptibility (MIC) testing of stool culture isolates: Bacteroides; assay type: cell-based
stool microbiota = assay: 16S rRNA gene sequencing of stool microbiota in IBS-D subjects (richness, diversity, evenness, family abundance); assay type: in vivo, human; conditions: for Shannon diversity: DB rifaximin group
Experimental: Stool aliquots from the selected subjects were shipped frozen for genomic sequencing. The samples were thawed at the time of testing. DNA was extracted from stool. Next-generation sequencing technology (Illumina HiSeq2500) was used to sequence the V4 region of the 16S ribosomal RNA. In order to do this, a 286 base pair (bp) region was amplified […] first using Illumina's adapter information, and then a second round of demultiplexing was performed. Approximately 4.6 billion total ([…] paired ends) sequences were generated from the selected stool samples. […] There were 172 separate families identified from subjects randomly selected. […] This list also included families of bacteria that contained known pathogens. The Shannon Diversity Index was used to determine the diversity (which takes into account not only the number of bacterial families present, but also the relative abundance of those families) of the stool microbiota at each visit.

S. aureus = assay: Skin swab culture for S. aureus in IBS-D subjects; assay type: in vivo, human; conditions: OL or DB phases
Experimental: For the skin swab study, skin swab collection was performed for a subset of subjects (approximately 10% of the study population) at each of the following visits: Visits 3 and 4 (baseline and after two weeks of open-label rifaximin 550 mg TID [Treatment 2], respectively), Visits 6 and 7 (prior to and immediately after two weeks of double-blind retreatment [Treatment 3] with rifaximin 550 mg TID or placebo), and Visit 11 (End of Study). For each subject in this study, skin swabs were collected from the peri-rectum, nares, palms of hands, and forearms, and swabs were shipped immediately to the microbiology laboratory at ambient temperature in media-containing tubes. Skin swab cultures were conducted to isolate all Staphylococcus species.
Upon receipt at the microbiology laboratory, each skin swab was plated onto tryptic soy agar containing 5% sheep's blood and Columbia-colistin nalidixic acid agar with 5% sheep's blood to select for Gram-positive colonies. […] The inoculated plates were incubated at 35° C. in a 5-7% CO2 incubator, with plates examined at 24 and 48 h for bacterial growth.

[2] = Phase 3 repeat treatment study in IBS patients, infection rates; assay type: in vivo, human; conditions: following single or repeat treatment courses in IBS patients
Experimental: Subjects entered a Screening/Treatment 1 Phase which included a 10 (±3) day treatment, during which the subjects received single-blind placebo TID and completed a daily symptom diary. Following the Screening/Treatment 1 Phase, eligible subjects entered the Treatment 2 Phase and received open-label rifaximin 550 mg TID for 2 weeks with a 4 week treatment-free follow-up. At the end of the Treatment 2 Phase, subjects who achieved treatment success in both IBS-related abdominal pain and stool consistency during at least 2 weeks of the 4 week follow-up period were classified as responders and entered a treatment-free Maintenance Phase 1. Non-responders in the Treatment 2 Phase were withdrawn from the study to provide an enriched population of subjects who respond to treatment with rifaximin.
The treatment-free Maintenance Phase 1 varied in time (up to 18 weeks in total) and depended upon the time of symptom recurrence. […] Subjects with recurrence entered Treatment 3 Phase, also referred to as the Double-Blind (DB) Repeat Treatment Phase. In this phase, subjects were randomized 1:1 to receive either rifaximin 550 mg TID or placebo TID for 2 weeks with a 4-week treatment-free follow-up. All subjects from the Treatment 3 Phase then entered a 6-week maintenance phase (Maintenance Phase 2). […]

[3] = skin swab, OL Week 2, following rifaximin treatment
[4] = skin swab, OL follow-up Week 7 to Week 10
[5] = skin swab, OL follow-up Week 11 to Week 14

## O=C(O)c1cn(C2CC2)c2cc(N3CCNCC3)c(F)cc2c1=O [ciprofloxacin]
Staphylococcus isolates; some skin swab isolates, did not substantially change with rifaximin treatment or time
  resistance of Staphylococcus isolates: low levels of resistance

## CO[C@H]1/C=C/O[C@@]2(C)Oc3c(C)c(O)c4c(O)c(c(/C=N/N5CCN(C)CC5)c(O)c4c3C2=O)NC(=O)/C(C)=C\C=C\[C@H](C)[C@H](O)[C@@H](C)[C@@H](O)[C@@H](C)[C@H](OC(C)=O)[C@@H]1C [rifampin]
Staphylococcus isolates
  changes in MIC50 values: no changes
  resistance of S. aureus isolates: no S. aureus isolates showed resistance
Staphylococcus isolates; DB placebo treated subjects, Day 1, peri-rectum
  resistant isolates: 1 isolates
Staphylococcus isolates; DB placebo treated subjects, Week 2, peri-rectum
  resistant isolates: 2 isolates
Staphylococcus isolates; DB placebo treated subjects, treatment period, all from peri-rectum
  resistant isolates: 3 isolates
Staphylococcus isolates; OL Last Assessment Visits between Week 7 and Week 32, […]
  isolates with MIC value of ≥4 μg/mL: 16 isolates
Staphylococcus isolates; Staphylococcus, 24 h, […], DB placebo subjects, all Visits from Day 1 to DB Last Assessment
  MIC90: ≤ 0.015 µg/mL
Staphylococcus isolates; Staphylococcus, 24 h, […], OL phase, Treatment 2 visit (Day 1), prior to rifaximin
  MIC90: ≤ 0.015 µg/mL
Staphylococcus isolates; Staphylococcus, 24 h, […], OL phase, Treatment 2 visit (Day 1), prior to rifaximin, read-out: MIC50
  MIC50: ≤ 0.015 µg/mL
Staphylococcus isolates; Staphylococcus, 336 h, […], OL phase, EOT2 Visit (Week 2), after rifaximin 550 mg TID 2 weeks
  MIC90: 16 µg/mL (≈ 19.4 µM)
Staphylococcus isolates; Staphylococcus, 336 h, […], OL phase, EOT2 Visit (Week 2), after rifaximin 550 mg TID 2 weeks, read-out: MIC50
  MIC50: ≤ 0.015 µg/mL
Staphylococcus isolates; Staphylococcus, […], OL Last Assessment Visits, Weeks 7 to 10
  MIC90: 0.5 µg/mL (≈ 0.608 µM)
Staphylococcus isolates; Staphylococcus, […], OL Last Assessment Visits, from Week 11 onward
  MIC90: ≤ 0.015 µg/mL
Staphylococcus isolates; […], DB placebo subjects, all Visits from Day 1 to DB Last Assessment
  MIC50: ≤ 0.015 µg/mL
Staphylococcus isolates; […], OL phase, Day 1 of Treatment 2
  MIC range: 0.015 to 0.12 µg/mL
Staphylococcus isolates; […]
  changes in MIC90 values: Transient changes
Staphylococcus isolates; skin swab, OL Week 2
  resistant isolates cultured from the left lower arm swabs: 3 isolates
  resistant isolates cultured from the palms of the hands: 4 isolates
  resistant isolates on the peri-rectum: 32 isolates
Staphylococcus isolates; [3]
  isolates with a MIC value ≥4 μg/mL (resistant): 39 isolates
  isolates with an MIC value of <4 μg/mL (susceptible): 297 isolates
Staphylococcus isolates; [4]
  resistant isolates (count): Seven
  resistant isolates, % of isolates: 9.5%
Staphylococcus isolates; [5]
  resistant isolates (count): 7 isolates
  resistant isolates, % of isolates: 2.8%
Staphylococcus isolates; skin swab, OL follow-up Week 15 to Week 32
  resistant isolates: No rifampin resistant isolates
[1]
  change in MIC values: Transient increases

## CO[C@H]1/C=C/O[C@@]2(C)Oc3c(C)c(O)c4c(O)c(c5c(nc6cc(C)ccn65)c4c3C2=O)NC(=O)/C(C)=C\C=C\[C@H](C)[C@H](O)[C@@H](C)[C@@H](O)[C@@H](C)[C@H](OC(C)=O)[C@@H]1C [rifaximin]
Staphylococcus isolates
  resistance of S. aureus isolates: no S. aureus isolates showed resistance
Staphylococcus isolates; Staphylococcus, 24 h, skin swab isolates, DB phase Day 1 (Treatment 3), subjects randomized to placebo
  MIC90: 0.03 µg/mL (≈ 0.0382 µM)
Staphylococcus isolates; Staphylococcus, 24 h, skin swab isolates, DB phase Day 1, subjects randomized to rifaximin
  MIC90: 0.03 µg/mL (≈ 0.0382 µM)
Staphylococcus isolates; Staphylococcus, 24 h, skin swab staphylococcal isolates, OL phase, Treatment 2 visit (Day 1), prior to rifaximin
  MIC90: 0.03 µg/mL (≈ 0.0382 µM)
Staphylococcus isolates; Staphylococcus, 24 h, skin swab staphylococcal isolates, OL phase, Treatment 2 visit (Day 1), prior to rifaximin, read-out: MIC50
  MIC50: 0.015 µg/mL (≈ 0.0191 µM)
Staphylococcus isolates; Staphylococcus, 336 h, skin swab isolates, OL phase, EOT2 Visit (Week 2), after rifaximin 550 mg TID 2 weeks
  MIC90: 32 µg/mL (≈ 40.7 µM)
Staphylococcus isolates; Staphylococcus, 336 h, skin swab isolates, OL phase, EOT2 Visit (Week 2), after rifaximin 550 mg TID 2 weeks, read-out: MIC50
  MIC50: 0.015 µg/mL (≈ 0.0191 µM)
Staphylococcus isolates; Staphylococcus, skin swab isolates, DB rifaximin subjects, EOT3 Visit (Week 2)
  MIC90: 32 µg/mL (≈ 40.7 µM)
Staphylococcus isolates; Staphylococcus, skin swab isolates, DB rifaximin subjects, Week 15 to Week 22
  MIC90: 0.5 µg/mL (≈ 0.636 µM)
Staphylococcus isolates; Staphylococcus, skin swab isolates, DB rifaximin subjects, between Week 11 and Week 14
  MIC90: 64 µg/mL (≈ 81.4 µM)
Staphylococcus isolates; Staphylococcus, skin swab isolates, DB rifaximin subjects, between Week 23 and Week 38
  MIC90: 0.06 µg/mL (≈ 0.0763 µM)
Staphylococcus isolates; Staphylococcus, skin swab isolates, OL Last Assessment Visits, Weeks 7 to 10
  MIC90: 2 µg/mL (≈ 2.54 µM)
Staphylococcus isolates; Staphylococcus, skin swab isolates, OL Last Assessment Visits, after decrease with time off rifaximin
  MIC: 0.06 µg/mL (≈ 0.0763 µM)
Staphylococcus isolates; Staphylococcus, skin swab isolates, OL Last Assessment Visits, before decrease with time off rifaximin
  MIC: 64 µg/mL (≈ 81.4 µM)
Staphylococcus isolates; Staphylococcus, skin swab isolates, OL Last Assessment Visits, from Week 11 onward
  MIC90: 0.03 µg/mL (≈ 0.0382 µM)
Staphylococcus isolates; Staphylococcus, skin swab isolates, DB rifaximin subjects, DB Last Assessment Visits, read-out: MIC50
  MIC50: 0.015 to 0.06 µg/mL (≈ 0.0191 to 0.0763 µM)
Staphylococcus isolates; skin swab isolates, DB phase Day 1 (Treatment 3), subjects randomized to placebo
  MIC50: 0.015 µg/mL (≈ 0.0191 µM)
Staphylococcus isolates; skin swab isolates, DB phase Day 1, subjects randomized to rifaximin
  MIC50: 0.015 µg/mL (≈ 0.0191 µM)
Staphylococcus isolates; skin swab staphylococcal isolates, overall with rifaximin treatment
  changes in MIC50 values: no changes
Staphylococcus isolates; skin swab staphylococcal isolates, overall
  changes in MIC90 values: Transient changes
C. difficile; all C. difficile cultured from stool
  susceptibility: highly susceptible
C. difficile; isolates identified in stool samples
  resistance of C. difficile isolates: none of these isolates demonstrated rifaximin resistance
Bacteroides
  increases in the MIC50 or MIC90: within the range of MICs reported both at baseline
Stool microbiota; DB phase
  evenness in the microbiota: unchanged
Stool microbiota; DB phase, rifaximin treated subjects, Week 2, reversed in follow-up
  richness of the microbiota: decreased
Stool microbiota; after the 2 week treatment period
  Shannon diversity: 1.698
Stool microbiota; baseline of DB phase
  Shannon diversity: 1.786
Stool microbiota; OL phase, baseline to Week 2
  decrease in richness of the microbiota: 1.235 families
Stool microbiota; OL phase, rifaximin 550 mg TID 2 weeks
  change in Shannon diversity of the stool microbiota: no substantial change
Stool microbiota; OL phase, rifaximin treatment
  evenness of the microbiota: not affected
[1]
  change in MIC values: Transient increases
S. aureus
  change in the number of S. aureus isolates: no increase
[2]
  infection rates: no increased infection rates
